Series [1] has as its target T1, Dipeptidyl peptidase 4 (Homo sapiens, UniProt P27487). Put plainly: Inhibition of DPP4 (unknown origin) using Gly-Pro-AMC as substrate incubated for 30 mins by spectroscopic analysis.
Target sequence in this assay (P27487 whole entry): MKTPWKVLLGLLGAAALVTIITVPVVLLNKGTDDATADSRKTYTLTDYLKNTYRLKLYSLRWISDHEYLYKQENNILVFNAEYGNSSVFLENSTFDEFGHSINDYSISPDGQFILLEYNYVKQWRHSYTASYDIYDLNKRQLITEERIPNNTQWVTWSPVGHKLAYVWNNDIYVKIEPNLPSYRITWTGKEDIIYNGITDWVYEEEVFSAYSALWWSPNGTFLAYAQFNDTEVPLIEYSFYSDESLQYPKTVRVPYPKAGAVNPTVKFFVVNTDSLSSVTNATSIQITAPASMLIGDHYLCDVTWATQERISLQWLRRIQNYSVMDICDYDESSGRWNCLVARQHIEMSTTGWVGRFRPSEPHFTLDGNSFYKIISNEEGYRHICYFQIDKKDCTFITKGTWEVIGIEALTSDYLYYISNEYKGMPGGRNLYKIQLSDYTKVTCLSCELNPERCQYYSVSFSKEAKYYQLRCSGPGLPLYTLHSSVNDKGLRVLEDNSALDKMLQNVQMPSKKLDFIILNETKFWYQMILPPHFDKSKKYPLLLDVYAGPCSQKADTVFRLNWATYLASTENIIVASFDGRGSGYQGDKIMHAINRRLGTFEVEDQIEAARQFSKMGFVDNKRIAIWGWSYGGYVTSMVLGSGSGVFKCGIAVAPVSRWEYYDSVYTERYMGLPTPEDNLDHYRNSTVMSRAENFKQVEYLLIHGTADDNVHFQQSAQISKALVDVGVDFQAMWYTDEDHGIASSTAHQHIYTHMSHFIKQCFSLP
The nature of series [2]: Antioxidant activity assessed as DPPH radical scavenging activity. The series is classed as functional. Background: DPPH is a stable violet radical that fades when it is reduced.
The target of series [3] is T2, Voltage-gated inwardly rectifying potassium channel KCNH2 (Homo sapiens, UniProt Q12809). Put plainly: Inhibition of hERG channel by patch clamp assay. The series is classed as toxicity.
A short description of series [4]: Oral bioavailability in ICR mouse at 15 mg/kg. It is filed as ADME, organism-based. The conditions noted are these: in vivo.
The target of series [5] is T2, Voltage-gated inwardly rectifying potassium channel KCNH2. As to the kind of experiment: Inhibition of hERG by thallium flux assay. The series is classed as toxicity. Background: The hERG channel carries a current that helps repolarise heart muscle cells.
Series [6] can be described thus: Half life in ICR mouse at 15 mg/kg. The series is classed as ADME, organism-based. The conditions noted are these: in vivo.
A short description of series [7]: Blood glucose AUC in ICR mouse at 15 mg/kg. Particulars: in vivo.
Series [8] has as its system Mus musculus. As to the kind of experiment: Hypoglycemic activity in C57BL/6J mouse assessed as reduction in blood glucose level at 10 mg/kg, po measured at 20 to 80 mins by OGTT analysis. It is filed as functional. Set-up: scale not given: the % may be the effect or the level left. The conditions noted are these: time 20-80 min.
Series [9] has as its target T1, Dipeptidyl peptidase 4. The series is classed as cell-based, Caco-2.
Target sequence in this assay (P27487 whole entry): as above
Series [10] can be described thus: AUC in C57BL/6J mouse at 20 mg/kg, po. It is filed as ADME, organism-based. Set-up: dose 20 mg/kg, route po. The conditions noted are these: in vivo.
In series [11] the test system is Mus musculus. Put plainly: Antidiabetic activity in ICR mouse assessed as decrease in AUC of glucose at 3 mg/kg, po. It is filed as functional. Set-up: scale not given: the % may be the effect or the level left.
For series [12], the target named is T1, Dipeptidyl peptidase 4.
Target sequence in this assay (P27487 whole entry): as above
For series [13], the system named is Mus musculus. As to the kind of experiment: Hypoglycemic activity in ICR mouse assessed as reduction in blood glucose level at 3 mg/kg. The conditions noted are these: in vivo. The series is classed as ADME, organism-based. Set-up: scale not given: the % may be the effect or the level left.
The subject of series [14] is Mus musculus. Put plainly: Hypoglycemic activity in ICR mouse assessed as reduction in blood glucose level at 10 mg/kg. Set-up: scale not given: the % may be the effect or the level left. The series is classed as ADME, organism-based. The conditions noted are these: in vivo.
Series [15] can be described thus: Half life in mouse. It is filed as ADME, organism-based. Particulars: in vivo.
A further series is filed under the species Homo sapiens. As to the kind of experiment: Selectivity index, ratio of IC50 for DPP-4 (unknown origin) to IC50 for DPP-8 (unknown origin).
Series [16] has as its target T1, Dipeptidyl peptidase 4. Put plainly: Inhibition of human recombinant DPP-4 at 100 uM using Gly-Pro-Aminomethylcoumarin as substrate by Spectra max fluorometer analysis relative to control.
Target sequence in this assay (P27487 whole entry, looked up): as the sequence (P27487 whole entry) above
The test system of series [17] is Rattus norvegicus. Put plainly: Anti-hyperglycemic activity in STZ-induced diabetic rat model assessed as improvement in glucose tolerance level at 30 mg/kg, po measured on day 10. Particulars: time 10 day. The series is classed as functional.
Series [18] deals with Rattus norvegicus. As to the kind of experiment: Anti-hyperglycemic activity in STZ-induced diabetic rat model assessed as improvement in glucose tolerance level at 30 mg/kg, po measured on day 15. The series is classed as functional.
Series [19] has as its system Rattus norvegicus. As to the kind of experiment: Antihyperglycemic activity in STZ-induced diabetic rat model assessed as reduction in blood glucose level at 100 mg/kg, po measured upto 24 hrs. It is filed as functional. Set-up: scale not given: the % may be the effect or the level left.
Series [20] addresses T1, Dipeptidyl peptidase 4. As to the kind of experiment: Inhibition of DPP-4 (unknown origin) at 100 uM relative to control.
Target sequence in this assay (P27487 whole entry, looked up): as the sequence (P27487 whole entry) above
In series [21] the test system is Mus musculus. As to the kind of experiment: Antidiabetic activity in ICR mouse assessed as decrease in AUC of glucose at 10 mg/kg, po. The series is classed as functional. Set-up: scale not given: the % may be the effect or the level left.
For series [22], the target named is T1, Dipeptidyl peptidase 4. The source holds these as a separate data set.
Target sequence in this assay (P27487 whole entry): as above
In series [23] the test system is Mus musculus. Put plainly: Hypoglycemic activity in ICR mouse assessed as reduction in blood glucose level at 1 mg/kg. The series is classed as ADME, organism-based. Set-up: scale not given: the % may be the effect or the level left. The conditions noted are these: in vivo.
The test system of series [24] is Mus musculus. Put plainly: Hypoglycemic activity in KKAy mouse assessed as reduction in blood glucose level at 10 mg/kg. The series is classed as ADME, organism-based. Set-up: scale not given: the % may be the effect or the level left. Particulars: in vivo.
Series [25] has as its target T1, Dipeptidyl peptidase 4. The source holds these as a separate data set.
Target sequence in this assay (P27487 whole entry, looked up): as the sequence (P27487 whole entry) above

pIC50: −log10 of the molar value. Values after ≈ are worked out from the molar mass of the structure shown.

By pIC50 is commonly meant the negative decadic logarithm of the IC50, by convention in mol/L. As a reminder, the IC50 is the concentration that gives 50% inhibition. As a reminder, the bioavailability is dose-corrected exposure relative to a reference, in per cent. Broadly, the half-life is how long it takes for the measured level to halve. A word on the AUC: it is the area under the concentration-time curve, a measure of exposure. As usually defined, the inhibition is the drop in the measured response relative to a control, in per cent.

T2 sequence (Q12809 whole entry): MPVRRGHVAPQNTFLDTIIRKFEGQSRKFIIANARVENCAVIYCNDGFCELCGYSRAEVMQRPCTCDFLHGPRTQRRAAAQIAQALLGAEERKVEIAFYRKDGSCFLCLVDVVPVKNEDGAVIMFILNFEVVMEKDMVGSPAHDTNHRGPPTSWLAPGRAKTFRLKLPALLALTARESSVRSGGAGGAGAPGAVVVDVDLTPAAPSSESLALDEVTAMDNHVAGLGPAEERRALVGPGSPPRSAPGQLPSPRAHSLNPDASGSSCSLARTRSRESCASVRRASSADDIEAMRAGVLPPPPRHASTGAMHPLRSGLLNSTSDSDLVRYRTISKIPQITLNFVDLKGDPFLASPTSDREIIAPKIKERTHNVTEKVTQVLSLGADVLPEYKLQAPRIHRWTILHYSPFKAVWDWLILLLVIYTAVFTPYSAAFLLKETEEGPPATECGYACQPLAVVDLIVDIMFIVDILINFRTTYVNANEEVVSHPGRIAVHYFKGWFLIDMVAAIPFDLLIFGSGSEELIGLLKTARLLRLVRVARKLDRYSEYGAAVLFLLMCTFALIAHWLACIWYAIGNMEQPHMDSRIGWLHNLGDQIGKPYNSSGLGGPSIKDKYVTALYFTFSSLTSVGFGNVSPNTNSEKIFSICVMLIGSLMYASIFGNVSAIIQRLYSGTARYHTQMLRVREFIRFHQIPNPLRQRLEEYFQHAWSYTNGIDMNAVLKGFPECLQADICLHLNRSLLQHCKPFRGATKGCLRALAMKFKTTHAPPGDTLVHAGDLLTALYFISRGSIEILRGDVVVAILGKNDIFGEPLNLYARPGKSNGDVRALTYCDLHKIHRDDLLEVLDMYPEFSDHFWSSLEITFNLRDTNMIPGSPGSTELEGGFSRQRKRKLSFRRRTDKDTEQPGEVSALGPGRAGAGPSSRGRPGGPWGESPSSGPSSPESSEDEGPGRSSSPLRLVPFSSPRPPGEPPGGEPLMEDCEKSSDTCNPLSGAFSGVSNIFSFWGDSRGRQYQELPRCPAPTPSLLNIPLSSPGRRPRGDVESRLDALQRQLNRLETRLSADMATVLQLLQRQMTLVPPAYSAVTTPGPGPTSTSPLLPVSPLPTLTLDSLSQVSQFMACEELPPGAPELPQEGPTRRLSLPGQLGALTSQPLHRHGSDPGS

`COC(=O)c1cn([C@@H]2CC[C@H](C(=O)N3CCC(F)(F)C3)C2)nn1` gave a negative-log IC50 (pIC50) against Dipeptidyl peptidase 4 [1] of 6.14.

Consider `O=C1O[C@H]([C@@H](O)CO)C(O)=C1O` [ASCORBIC ACID], for which the IC50 in series [2] was determined as 34.69 µg/mL (≈ 197 µM).

As to `N#C[C@@H]1[C@@H]2CCC[C@@H]2CN1C(=O)[C@@H](N)Cc1cc(F)c(F)cc1F`, the pIC50 in series [3] is under 4.40. The bioavailability in series [4] came to 22.8%. This compound also registered an IC5 in series [5] (human) of 55.3 µM. Also, in series [6], the half-life was 2.74 h. This compound returned a glucose AUC in series [7] of 847 mmol/L/min.

On to `CS(=O)(=O)c1cccc(C(=O)NC[C@@H]2CCCN2C(=O)C[C@H](N)[C@H]2CCc3cc(F)c(F)cc32)c1`, for which the Activity with Mus musculus [8] stood at 40%. The same compound showed a pIC50 against Dipeptidyl peptidase 4 [9] of 8.97.

`N#C[C@@H]1CCCN1C(=O)CCCNC(=O)c1ccc(C(F)(F)F)cc1` registered an area under the curve (AUC) in series [10] of 17400 ng·h/mL.

In the case of `CC#CCn1c(N2CCC[C@@H](N)C2)cc(=O)n(Cc2cn(CCC(=O)O)nn2)c1=O`, the Activity in the series on Mus musculus [11] was determined as 21.2%. The pIC50 on Dipeptidyl peptidase 4 [12] is 7.90.

Regarding `CCN(CC)S(=O)(=O)c1cc(C(=O)NC[C@@H]2CCCN2C(=O)C[C@H](N)[C@H]2CCc3cc(F)c(F)cc32)ccc1F`, the pIC50 on Dipeptidyl peptidase 4 [9] is 9.06.

For the compound `N#Cc1ccc(NCCNCC(=O)N2CCC[C@H]2C#N)nc1`, the Activity in the series on Mus musculus [13] was 33.48%; with Mus musculus [14], 33.51%. The compound also returned an AUC in series [10] of 21500 ng·h/mL.

Turning to `CC#CCn1c(N2CCC[C@@H](N)C2)cc(=O)n(Cc2cn(C/C=C/C(=O)O)nn2)c1=O`, the Activity with Mus musculus [11] is given as 28.1%. The compound further showed a pIC50 on Dipeptidyl peptidase 4 [12] of 8.02.

In series [15], `N#C[C@@H]1CCCN1C(=O)[C@@H](N)CCC(=O)N1CCn2nc(C(F)(F)F)nc2C1.O=C(O)C(F)(F)F` returned a half-life of under 24 h. The Ratio IC50 in the series filed under Homo sapiens is over 1000.

On to `O=C(CNc1cc2ccc3ccccc3c2oc1=O)Nc1ccc(F)cc1`, for which the inhibition at Dipeptidyl peptidase 4 [16] stood at 26.7%.

`O=C([C@H]1CC[C@@H](n2cc(-c3ccc(-c4ccccc4)cc3)nn2)C1)N1CCC(F)(F)C1` gave a pIC50 on Dipeptidyl peptidase 4 [1] of 6.18.

For `N[C@@H](CC(=O)N1CCC[C@H]1CNC(=O)c1ccc(F)c(S(N)(=O)=O)c1)[C@H]1CCc2cc(F)c(F)cc21`, the pIC50 at Dipeptidyl peptidase 4 [9] is 9.06.

As for `Cc1ccc(NC(=O)CNc2cc3ccc4ccccc4c3oc2=O)cc1`, the inhibition at Dipeptidyl peptidase 4 [16] came out at 26.7%.

As to `CCOC(=O)c1ccc2cc(OCC(=O)N3CCOCC3)c(=O)oc2c1`, on Dipeptidyl peptidase 4 [16], the inhibition turned out to be 1.3%.

`O=C(CN1CCN(c2cccc(Cl)c2)CC1)N1CCCCC1`: the Activity with Rattus norvegicus [17] stood at 11.8%; in the series on Rattus norvegicus [18], 19.4%; in the series on Rattus norvegicus [19] it was 24.6%.

Take `N#Cc1ccc(C2=NNc3nc(Br)nn3C2)cc1`: the inhibition against Dipeptidyl peptidase 4 [20] was determined as 48.3%.

`CC#CCn1c(N2CCC[C@@H](N)C2)cc(=O)n(Cc2cn(CCC(=O)OC)nn2)c1=O`: the Activity in the series on Mus musculus [11] is reported as 31.4%; with Mus musculus [21], 40.4%. In addition, the negative-log IC50 (pIC50) against Dipeptidyl peptidase 4 [12] is 7.19.

For `N[C@@H](CC(=O)N1CCC[C@H]1CNC(=O)c1cc(S(=O)(=O)N2CCCCC2)c(F)cc1F)[C@H]1CCc2cc(F)c(F)cc21`, the negative logarithm of the IC50 (pIC50) against Dipeptidyl peptidase 4 [9] was 9.06.

`CO/N=C1\CN(c2nc3c(cc2F)c(=O)c(C(=O)O)cn3C2CC2)CC1CN` (configuration not stated) [GEMIFLOXACIN] showed a negative-log IC50 (pIC50) on Dipeptidyl peptidase 4 [22] of 5.57.

As for `N#C[C@@H]1C[C@H](F)CN1C(=O)[C@@H](N)Cc1cc(Cl)c(Cl)cc1Cl`, the values for the negative logarithm of the IC50 (pIC50) in [3] and in series [5] were under 4.40 and 4.01, respectively. This compound also showed a bioavailability in series [4] of 53.2%. For the same compound, the half-life in series [6] was 2.03 h. The same compound registered a glucose AUC in series [7] of 795 mmol/L/min.

For the compound `N[C@@H](CC(=O)N1CCC[C@H]1CNC(=O)c1cc(S(=O)(=O)N2CCC2)c(F)cc1F)[C@H]1CCc2cc(F)c(F)cc21`, the negative logarithm of the IC50 (pIC50) at Dipeptidyl peptidase 4 [9] was 9.06.

Consider `N[C@@H](CC(=O)N1CCC[C@H]1CNC(=O)c1cccc(S(N)(=O)=O)c1)[C@H]1CCc2cc(F)c(F)cc21`, for which, on Dipeptidyl peptidase 4 [9], the pIC50 was 9.06.

As for `N#C[C@@H]1CCCN1C(=O)CNC12CC3CC(CC(O)(C3)C1)C2` [VILDAGLIPTIN], the Activity was 24.1% in the series on Mus musculus [23] and 30% in the series on Mus musculus [24]. The compound further returned a glucose AUC in series [7] of 904 mmol/L/min.

Take `NNC1=NC(N2C(=O)CSC2=O)=NC(NN)N1` (configuration not stated): the IC5 against Dipeptidyl peptidase 4 [25] came out at 6.25 µM.

As for `N#C[C@@H]1CCCN1C(=O)[C@@H](N)CCC(=O)N1CCn2cc(C(F)(F)F)nc2C1.O=C(O)C(F)(F)F`, the half-life in series [15] is under 24 h. Further, the Ratio IC50 in the series listed under Homo sapiens was over 1000.
